Results on three compounds are retold here after ChEMBL document CHEMBL6127089, “Novel non-peptide uracil-derived human gonadotropin-releasing hormone receptor antagonists” (Eur J Med Chem, 2024).

The test has as its target T1, Gonadotropin-releasing hormone receptor (Homo sapiens, UniProt P30968).
T1 sequence (P30968 whole entry): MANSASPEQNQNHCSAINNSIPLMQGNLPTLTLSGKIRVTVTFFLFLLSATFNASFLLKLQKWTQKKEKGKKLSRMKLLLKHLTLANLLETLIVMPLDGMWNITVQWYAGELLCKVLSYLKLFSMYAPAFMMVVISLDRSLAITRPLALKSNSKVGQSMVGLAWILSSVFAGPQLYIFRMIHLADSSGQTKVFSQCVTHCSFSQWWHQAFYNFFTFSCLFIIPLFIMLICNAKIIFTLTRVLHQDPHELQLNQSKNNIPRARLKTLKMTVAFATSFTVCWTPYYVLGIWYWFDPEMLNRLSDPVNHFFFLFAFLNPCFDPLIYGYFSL
The experiment in a line: Antagonist activity at wild type HA-tagged human GnRH1 receptor expressed in HEK293T cells assessed as inhibition of GnRH peptide-stimulated IP1 accumulation by measuring GnRH peptide EC50 at 100 uM pretreated for 1 hr followed by stimulation with GnRH peptide for 1 hr (reference value: 2.5 nM). The format is cell-based.
Broadly, the EC50 is the concentration at which the effect is half-maximal. In the case of `COc1cccc(-c2c(N[C@@H](CSCCCC(=O)O)c3ccccc3)nc(=O)n(Cc3c(F)cccc3C(F)(F)F)c2C)c1F`, the EC50 came out at 39 nM. Consider `COc1cccc(-c2c(SC[C@H](NCCCC(=O)O)c3ccccc3)nc(=O)n(Cc3c(F)cccc3C(F)(F)F)c2C)c1F`, for which the 50% effective concentration (EC50) was 110 nM. In the case of `COc1cccc(-c2c(C)n(Cc3c(F)cccc3C(F)(F)F)c(=O)n(C[C@H](NCCCC(=O)O)c3ccccc3)c2=O)c1F` [ELAGOLIX], the EC50 stood at 0.6 nM.
